Data set [1] deals with NaV1.6 (Homo sapiens (Human), UniProt Q9UQD0). In words: Sodium Influx Assay (Flux), NaV1.6.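 Further: Tetracycline-induced cells, compounds applied for one hour at room temperature with modulators holding channels open, IC50 from percent inhibition of sodium influx.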 The class given is cell-based. Particulars: Trex HEK293 cells, ANG2 dye, inactivated state.
The target of data set [2] is NaV1.1 (Homo sapiens (Human), UniProt P35498). In words: Sodium Influx Assay (Flux), NaV1.1.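 Further: channels co-expressed with human β1 subunit and held open by modulators, cells exposed to compounds for one hour at room temperature, IC50 from percent inhibition of influx.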 The class given is cell-based. Particulars: Trex HEK293 cells, ANG2 dye, inactivated state.
The target in data set [3] is NaV1.5 (Homo sapiens (Human), UniProt Q14524). As to the kind of experiment: Sodium Influx Assay (Flux), NaV1.5.
NaV1.5, sequence (Q14524 other isoform, or with tags, fused parts or gaps): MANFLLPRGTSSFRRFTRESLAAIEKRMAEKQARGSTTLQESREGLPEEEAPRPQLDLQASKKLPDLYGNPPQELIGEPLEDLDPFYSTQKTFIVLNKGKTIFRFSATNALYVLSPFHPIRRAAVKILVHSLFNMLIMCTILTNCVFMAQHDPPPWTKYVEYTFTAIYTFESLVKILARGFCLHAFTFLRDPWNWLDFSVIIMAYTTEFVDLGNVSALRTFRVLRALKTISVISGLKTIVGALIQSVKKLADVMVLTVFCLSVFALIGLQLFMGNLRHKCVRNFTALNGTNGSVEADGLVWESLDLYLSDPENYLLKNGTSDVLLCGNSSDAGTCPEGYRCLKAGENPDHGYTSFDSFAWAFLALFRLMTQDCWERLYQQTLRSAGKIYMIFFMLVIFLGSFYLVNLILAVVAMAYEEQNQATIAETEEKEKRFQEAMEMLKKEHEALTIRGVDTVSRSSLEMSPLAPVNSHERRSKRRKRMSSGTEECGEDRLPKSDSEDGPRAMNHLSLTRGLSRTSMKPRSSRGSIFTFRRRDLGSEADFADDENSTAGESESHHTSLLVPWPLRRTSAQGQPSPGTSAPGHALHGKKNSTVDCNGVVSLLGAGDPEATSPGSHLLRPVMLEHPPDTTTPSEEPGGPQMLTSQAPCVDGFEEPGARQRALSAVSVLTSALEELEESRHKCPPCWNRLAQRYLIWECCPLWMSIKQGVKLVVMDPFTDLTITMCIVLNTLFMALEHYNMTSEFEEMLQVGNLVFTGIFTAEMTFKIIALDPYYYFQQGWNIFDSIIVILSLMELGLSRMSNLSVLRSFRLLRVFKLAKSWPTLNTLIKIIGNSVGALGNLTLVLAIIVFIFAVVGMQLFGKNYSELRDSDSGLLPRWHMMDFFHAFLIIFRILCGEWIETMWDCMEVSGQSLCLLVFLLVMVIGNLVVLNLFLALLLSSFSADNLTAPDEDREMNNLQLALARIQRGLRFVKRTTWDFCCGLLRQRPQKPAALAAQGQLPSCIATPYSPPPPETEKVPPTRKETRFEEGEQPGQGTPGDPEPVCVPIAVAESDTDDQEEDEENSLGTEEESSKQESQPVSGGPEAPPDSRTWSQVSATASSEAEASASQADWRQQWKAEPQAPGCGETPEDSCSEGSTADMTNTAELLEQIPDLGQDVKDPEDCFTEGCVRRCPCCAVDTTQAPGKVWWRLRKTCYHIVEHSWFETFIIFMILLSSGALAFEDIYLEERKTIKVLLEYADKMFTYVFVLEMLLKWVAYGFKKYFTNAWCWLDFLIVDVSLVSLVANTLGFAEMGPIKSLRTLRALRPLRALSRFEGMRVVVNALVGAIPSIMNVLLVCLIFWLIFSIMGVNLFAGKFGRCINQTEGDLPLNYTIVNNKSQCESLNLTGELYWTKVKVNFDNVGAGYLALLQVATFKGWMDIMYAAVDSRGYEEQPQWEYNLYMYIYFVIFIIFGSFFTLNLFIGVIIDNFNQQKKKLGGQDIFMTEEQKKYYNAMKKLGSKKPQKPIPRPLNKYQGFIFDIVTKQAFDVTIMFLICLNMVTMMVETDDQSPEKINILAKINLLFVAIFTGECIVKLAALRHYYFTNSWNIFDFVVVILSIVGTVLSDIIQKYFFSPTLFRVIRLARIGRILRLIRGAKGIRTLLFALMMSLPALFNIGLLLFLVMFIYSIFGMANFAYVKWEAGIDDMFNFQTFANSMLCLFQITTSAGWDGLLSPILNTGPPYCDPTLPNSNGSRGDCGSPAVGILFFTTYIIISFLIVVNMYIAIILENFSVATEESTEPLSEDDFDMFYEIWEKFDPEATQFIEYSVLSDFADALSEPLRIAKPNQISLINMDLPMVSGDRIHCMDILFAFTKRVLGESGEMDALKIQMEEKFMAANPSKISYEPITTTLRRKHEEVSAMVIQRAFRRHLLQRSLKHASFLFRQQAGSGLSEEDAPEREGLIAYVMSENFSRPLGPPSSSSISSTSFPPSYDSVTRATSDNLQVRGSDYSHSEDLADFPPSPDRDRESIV
[4] abbreviates: read-out: Flux NaV1.5 IC50, Trex HEK293 cells, ANG2 dye, inactivated state.

Like-named read-outs stand apart in the source and are kept apart here.

What is called IC50 is the concentration that gives 50% inhibition. With `C[C@H](Nc1cc(F)c(S(=O)(=O)Nc2ccncn2)c(F)c1)c1cc(F)ccc1F` [Example 208, (S)-4-((1-(2,5-difluorophenyl)ethyl)amino)-2,6-difluoro-N-(pyrimidin-4-yl)benzenesulfonamide 2,2,2-trifluoroacetate], the IC50 came to 0.593 µM in data set [1], 9.89 µM in data set [2] and 30 µM in data set [3] (setting [4]).

Regarding `CCc1cccc(CN2CCC2)c1CNc1cc(F)c(S(=O)(=O)Nc2cscn2)c(F)c1` [Example 210, 4-((2-(azetidin-1-ylmethyl)-6-ethylbenzyl)amino)-2,6-difluoro-N-(thiazol-4-yl)benzenesulfonamide 2,2,2-trifluoroacetate], the IC50 in data set [1] worked out at 0.416 µM; in data set [2], 3.75 µM; in data set [3] (setting [4]) it was 26.8 µM.

Take `O=S(=O)(Nc1cscn1)c1c(F)cc(NCc2c(CN3CCC3)cccc2C2CC2)cc1F` [Example 211, 4-((2-(azetidin-1-ylmethyl)-6-cyclopropylbenzyl)amino)-2,6-difluoro-N-(thiazol-4-yl)benzenesulfonamide 2,2,2-trifluoroacetate]: the IC50 in data set [1] is 1.76 µM; in data set [2], 3.38 µM; in data set [3] (setting [4]), 19.2 µM.

`COC(C)(C)C1CN(Cc2ccccc2CNc2cc(F)c(S(=O)(=O)Nc3cscn3)c(F)c2)C1` [Example 214, 2,6-difluoro-4-((2-((3-(2-methoxypropan-2-yl)azetidin-1-yl)methyl)benzyl)amino)-N-(thiazol-4-yl)benzenesulfonamide 2,2,2-trifluoroacetate]: the IC50 in data set [1] is 0.326 µM; in data set [2], 13.4 µM; in data set [3] (setting [4]), 16.2 µM.

`Cc1cc(NS(=O)(=O)c2c(F)cc(NCc3c(F)ccc(F)c3CN3CCC3)cc2F)no1` [Example 216, 4-((2-(azetidin-1-ylmethyl)-3,6-difluorobenzyl)amino)-2,6-difluoro-N-(5-methylisoxazol-3-yl)benzenesulfonamide 2,2,2-trifluoroacetate]: the IC50 in data set [1] was determined as 3.12 µM; in data set [2], 30 µM; in data set [3] (setting [4]), 30 µM.

As to `CN(C)Cc1ccccc1C1(Nc2cc(F)c(S(=O)(=O)Nc3cscn3)cc2Cl)CC1` [Example 217, 5-chloro-4-((1-(2-((dimethylamino)methyl)phenyl)cyclopropyl)-amino)-2-fluoro-N-(thiazol-4-yl)benzenesulfonamide 2,2,2-trifluoroacetate], the IC50 in data set [1] was determined as 0.701 µM; in data set [2], 15.3 µM; in data set [3] (setting [4]), 11.6 µM.

Consider `COCc1cccc(F)c1CNc1cc(F)c(S(=O)(=O)Nc2cscn2)cc1Cl` [Example 218, 5-chloro-2-fluoro-4-((2-fluoro-6-(methoxymethyl)benzyl)amino)-N-(thiazol-4-yl)benzenesulfonamide], for which the IC50 in data set [1] amounted to 3.21 µM; in data set [2], 28.4 µM; in data set [3] (setting [4]) it was 20.9 µM.

For `Cc1cc(S(=O)(=O)Nc2ccon2)c(F)cc1NCc1c(F)cccc1CN1CCC1` [Example 219, 4-((2-(azetidin-1-ylmethyl)-6-fluorobenzyl)amino)-2-fluoro-N-(isoxazol-3-yl)-5-methylbenzenesulfonamide], the IC50 in data set [1] worked out at 0.28 µM; in data set [2], 30 µM; in data set [3] (setting [4]) it was 30 µM.

`O=S(=O)(Nc1nccs1)c1cc(Cl)c(NC2(c3ccccc3F)CC2)cc1F` [Example 220, 5-chloro-2-fluoro-4-((1-(2-fluorophenyl)cyclopropyl)amino)-N-(thiazol-2-yl)benzenesulfonamide]: the figures for the IC50 in data set [1], in data set [2] and in data set [3] (setting [4]) were 0.193 µM, 2.12 µM and 3.17 µM, respectively.

Take `O=S(=O)(Nc1cscn1)c1cc(Cl)c(OC2(c3ccccc3)CC2)cc1F` [Example 221, 5-chloro-2-fluoro-4-(1-phenylcyclopropoxy)-N-(thiazol-4-yl)benzenesulfonamide]: the figures for the IC50 in data set [1], in data set [2] and in data set [3] (setting [4]) were 4.66 µM, 25.4 µM and 19 µM, respectively.

With `CC[C@H](Nc1cc(F)c(S(=O)(=O)Nc2cscn2)cc1Cl)c1ccccc1Cl` [Example 222, (S)-5-chloro-4-((1-(2-chlorophenyl)propyl)amino)-2-fluoro-N-(thiazol-4-yl)benzenesulfonamide], the IC50 in data set [1] came out at 1.93 µM; in data set [2], 3.99 µM; in data set [3] (setting [4]), 8.35 µM.

As for `C[C@H](Nc1cc(F)c(S(=O)(=O)Nc2cscn2)cc1Cl)c1cc(F)cc(F)c1` [Example 223, (S)-5-chloro-4-((1-(3,5-difluorophenyl)ethyl)amino)-2-fluoro-N-(thiazol-4-yl)benzenesulfonamide], the values for the IC50 in data set [1], in data set [2] and in data set [3] were 4.23 µM, 3.74 µM and 12.2 µM, respectively.

For `O=S(=O)(Nc1cscn1)c1cc(Cl)c(NC2(c3ccc(F)cc3F)CC2)cc1F` [Example 224, 5-chloro-4-((1-(2,4-difluorophenyl)cyclopropyl)amino)-2-fluoro-N-(thiazol-4-yl)benzenesulfonamide], the IC50 in data set [1] stood at 5.07 µM; in data set [2], 7.76 µM; in data set [3] (setting [4]), 30 µM.

For `Cc1cccc(Cl)c1CNc1cc(F)c(S(=O)(=O)Nc2cscn2)cc1Cl` [Example 226, 5-chloro-4-((2-chloro-6-methylbenzyl)amino)-2-fluoro-N-(thiazol-4-yl)benzenesulfonamide], the 50% inhibitory concentration (IC50) in data set [1] was 8.19 µM; in data set [2], 19.9 µM; in data set [3] (setting [4]), 11.3 µM.

Turning to `C[C@H](Nc1cc(F)c(S(=O)(=O)Nc2cscn2)cc1Cl)c1cc(CC(F)F)ccc1F` [Example 227, (S)-5-chloro-4-((1-(5-(2,2-difluoroethyl)-2-fluorophenyl)ethyl)amino)-2-fluoro-N-(thiazol-4-yl)benzenesulfonamide], the figures for the IC50 in data set [1], in data set [2] and in data set [3] (setting [4]) were 1.25 µM, 8.78 µM and 8.6 µM, respectively.

For `COCc1ccc(F)c([C@H](C)Nc2cc(F)c(S(=O)(=O)Nc3cscn3)c(F)c2)c1` [Example 228, (S)-2,6-difluoro-4-((1-(2-fluoro-5-(methoxymethyl)phenyl)ethyl)amino)-N-(thiazol-4-yl)benzenesulfonamide], the results for the IC50 in data set [1], in data set [2] and in data set [3] (setting [4]) were 1.94 µM, 13.2 µM and 27.5 µM, respectively.

With `C[C@H](Nc1cc(F)c(S(=O)(=O)Nc2cscn2)cc1Cl)c1cc(C#N)ccc1F` [Example 229, (S)-5-chloro-4-((1-(5-cyano-2-fluorophenyl)ethyl)amino)-2-fluoro-N-(thiazol-4-yl)benzenesulfonamide], the IC50 is 0.961 µM in data set [1], 30 µM in data set [2] and 30 µM in data set [3] (setting [4]).

As to `O=S(=O)(Nc1cscn1)c1c(F)cc(NC2(c3ccccc3)CC2)cc1F` [Example 231, 2,6-difluoro-4-[(1-phenylcyclopropyl)amino]-N-thiazol-4-yl-benzenesulfonamide], the IC50 in data set [1] worked out at 4.21 µM; in data set [2], 17.5 µM; in data set [3] (setting [4]) it was 30 µM.

As to `C[C@H](Oc1cc(F)c(S(=O)(=O)Nc2cscn2)c(F)c1)c1ccccc1F` [Example 232, (S)-2,6-difluoro-4-(1-(2-fluorophenyl)ethoxy)-N-(thiazol-4-yl)benzenesulfonamide], the IC50 in data set [1] amounted to 1.75 µM; in data set [2] it was 21.2 µM; in data set [3] (setting [4]), 11.2 µM.

In the case of `C[C@H](Nc1cc(F)c(S(=O)(=O)Nc2cscn2)c(F)c1)c1cc(C(F)F)ccc1F` [Example 233, (S)-4-((1-(5-(difluoromethyl)-2-fluorophenyl)ethyl)amino)-2,6-difluoro-N-(thiazol-4-yl)benzenesulfonamide], the IC50 worked out at 0.787 µM in data set [1], 3.08 µM in data set [2] and 12.4 µM in data set [3] (setting [4]).

As to `C[C@H](Nc1cc(F)c(S(=O)(=O)Nc2cscn2)cc1Cl)c1cc(O)ccc1F` [Example 234, (S)-5-chloro-2-fluoro-4-((1-(2-fluoro-5-hydroxyphenyl)ethyl)amino)-N-(thiazol-4-yl)benzenesulfonamide], the IC50 worked out at 0.669 µM in data set [1], 4.62 µM in data set [2] and 8.67 µM in data set [3] (setting [4]).

In the case of `C[C@H](Nc1cc(F)c(S(=O)(=O)Nc2cscn2)cc1Cl)c1cc(OC2COC2)ccc1F` [Example 235, (S)-5-chloro-2-fluoro-4-((1-(2-fluoro-5-(oxetan-3-yloxy)phenyl)ethyl)amino)-N-(thiazol-4-yl)benzenesulfonamide], the IC50 in data set [1] is 3.02 µM; in data set [2] it was 22.4 µM; in data set [3] (setting [4]) it was 30 µM.

`C[C@H](Nc1cc(F)c(S(=O)(=O)Nc2cscn2)cc1Cl)c1cc(OCC2COC2)ccc1F` [Example 236, (S)-5-chloro-2-fluoro-4-((1-(2-fluoro-5-(oxetan-3-ylmethoxy)phenyl)ethyl)amino)-N-(thiazol-4-yl)benzenesulfonamide]: the results for the IC50 in data set [1], in data set [2] and in data set [3] (setting [4]) were 3.02 µM, 30 µM and 30 µM, respectively.

For `C[C@H](Nc1cc(F)c(S(=O)(=O)Nc2cscn2)cc1Cl)c1cc(OCC2(C)COC2)ccc1F` [Example 237, (S)-5-chloro-2-fluoro-4-((1-(2-fluoro-5-((3-methyloxetan-3-yl)methoxy)phenyl)ethyl)amino)-N-(thiazol-4-yl)benzenesulfonamide], the IC50 is 3.54 µM in data set [1], 12.5 µM in data set [2] and 30 µM in data set [3] (setting [4]).

Regarding `C[C@H](Nc1ccc(S(=O)(=O)Nc2cscn2)cc1C#N)c1ccccc1F` [Example 239, (S)-3-cyano-4-((1-(2-fluorophenyl)ethyl)amino)-N-(thiazol-4-yl)benzenesulfonamide], the values for the IC50 in data set [1], in data set [2] and in data set [3] (setting [4]) were 1.65 µM, 27 µM and 28.9 µM, respectively.

In the case of `C[C@H](Nc1cc(F)c(S(=O)(=O)Nc2ccon2)c(F)c1)c1cc(F)ccc1F` [Example 240, (S)-4-((1-(2,5-difluorophenyl)ethyl)amino)-2,6-difluoro-N-(isoxazol-3-yl)benzenesulfonamide], the IC50 in data set [1] was 3.17 µM; in data set [2] it was 30 µM; in data set [3] (setting [4]), 30 µM.
